Experimental data taken from ChEMBL document CHEMBL1201862, “PubChem BioAssay data set” (2004).
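In this assay, cells in 96-well plates receive the compound at five concentrations for 48 hours. Endpoints are linearly interpolated between the surrounding concentrations. GI50 is the concentration that inhibits growth by half.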 Calls of active or inactive are those of the source. Rule as the data show it: active = GI50 up to about 1.1 µM and inactive = higher.

How the values were obtained:
Experiment in all cases: NCI anticancer screen, dose series, 48 h
786-0 = tested on: 786-0
A498 = tested on: A498
A549 = tested on: A549
ACHN = tested on: ACHN
BT-549 = tested on: BT-549
CAKI-1 = tested on: CAKI-1
CCRF-CEM = tested on: CCRF-CEM
COLO 205 = tested on: COLO 205
DU-145 = tested on: DU-145
EKVX = tested on: EKVX
HCC 2998 = tested on: HCC 2998
HCT-116 = tested on: HCT-116
HCT-15 = tested on: HCT-15
HL-60 = tested on: HL-60
HOP-62 = tested on: HOP-62
HOP-92 = tested on: HOP-92
HT-29 = tested on: HT-29
Hs-578T = tested on: Hs-578T
IGROV-1 = tested on: IGROV-1
K562 = tested on: K562
KM12 = tested on: KM12
LOX IMVI = tested on: LOX IMVI
M14 = tested on: M14
MCF7 = tested on: MCF7
MDA-MB-231 = tested on: MDA-MB-231
MDA-MB-435 = tested on: MDA-MB-435
MDA-N = tested on: MDA-N
MOLT-4 = tested on: MOLT-4
Malme-3M = tested on: Malme-3M
NCI-H226 = tested on: NCI-H226
NCI-H23 = tested on: NCI-H23
NCI-H460 = tested on: NCI-H460
NCI-H522 = tested on: NCI-H522
NCI/ADR-RES = tested on: NCI/ADR-RES
OVCAR-3 = tested on: OVCAR-3
OVCAR-4 = tested on: OVCAR-4
OVCAR-5 = tested on: OVCAR-5
OVCAR-8 = tested on: OVCAR-8
PC-3 = tested on: PC-3
RPMI-8226 = tested on: RPMI-8226
RXF 393 = tested on: RXF 393
SF-268 = tested on: SF-268
SF-295 = tested on: SF-295
SF-539 = tested on: SF-539
SK-MEL-28 = tested on: SK-MEL-28
SK-MEL-2 = tested on: SK-MEL-2
SK-MEL-5 = tested on: SK-MEL-5
SK-OV-3 = tested on: SK-OV-3
SNB-19 = tested on: SNB-19
SNB-75 = tested on: SNB-75
SR = tested on: SR
SW-620 = tested on: SW-620
T47D = tested on: T47D
U-251 = tested on: U-251
UACC-257 = tested on: UACC-257
UACC-62 = tested on: UACC-62
UO-31 = tested on: UO-31
SN12C = tested on: SN12C
TK-10 = tested on: TK-10

Measured: GI50

CO[C@@H]1C[C@H](OC(N)=O)[C@@H]2C=C[C@@H]3/C=C(C)/C=C/[C@@H](C)[C@H]([C@H](C)[C@H](O)[C@@H](C)NC(C)=O)OC(=O)/C=C/C=C(C)\C=C\[C@]3(C)[C@@H]2C1
< 0.01 µM: HCT-15
inactive: BT-549 2.16 µM | EKVX 1.24 µM | OVCAR-5 1.42 µM | SK-MEL-2 1.28 µM | SNB-19 1.5 µM
active: 786-0 < 0.01 µM | A498 < 0.01 µM | A549 < 0.01 µM | ACHN < 0.01 µM | CAKI-1 < 0.01 µM | CCRF-CEM 0.322 µM | COLO 205 < 0.01 µM | DU-145 < 0.01 µM | HCC 2998 < 0.01 µM | HCT-116 < 0.01 µM | HL-60 < 0.01 µM | HOP-62 < 0.01 µM | HOP-92 < 0.01 µM | HT-29 < 0.01 µM | Hs-578T < 0.01 µM | IGROV-1 < 0.01 µM | K562 0.0101 µM | KM12 < 0.01 µM | LOX IMVI < 0.01 µM | M14 < 0.01 µM | MCF7 < 0.01 µM | MDA-MB-231 < 0.0316 µM | MDA-MB-435 < 0.01 µM | MDA-N < 0.01 µM | MOLT-4 0.332 µM | Malme-3M < 0.01 µM | NCI-H226 < 0.01 µM | NCI-H23 0.522 µM | NCI-H460 < 0.01 µM | NCI-H522 < 0.01 µM | NCI/ADR-RES < 0.01 µM | OVCAR-3 < 0.0436 µM | OVCAR-4 < 0.01 µM | OVCAR-8 0.22 µM | PC-3 < 0.01 µM | RPMI-8226 < 0.01 µM | RXF 393 < 0.01 µM | SF-268 0.767 µM | SF-295 < 0.01 µM | SF-539 < 0.01 µM | SK-MEL-28 < 0.01 µM | SK-MEL-5 < 0.01 µM | SK-OV-3 < 0.0504 µM | SNB-75 < 0.01 µM | SR < 0.01 µM | SW-620 < 0.01 µM | T47D < 0.01 µM | U-251 < 0.01 µM | UACC-257 0.0354 µM | UACC-62 < 0.01 µM | UO-31 < 0.01 µM

Cc1cn(C2CC(N)C(C(=O)NCC(=O)O)O2)c(=O)[nH]c1=O (stereo unspecified)
> 100 µM: HCT-15
inactive: A498 50.6 µM | ACHN > 100 µM | BT-549 > 100 µM | CAKI-1 > 100 µM | CCRF-CEM > 100 µM | COLO 205 > 100 µM | DU-145 > 100 µM | EKVX > 100 µM | HCC 2998 > 100 µM | HCT-116 > 100 µM | HL-60 > 100 µM | HOP-62 > 100 µM | HOP-92 > 100 µM | HT-29 > 100 µM | Hs-578T > 100 µM | IGROV-1 > 100 µM | K562 95.3 µM | KM12 > 100 µM | LOX IMVI > 100 µM | M14 > 100 µM | MCF7 > 100 µM | MDA-MB-231 > 100 µM | MDA-MB-435 > 100 µM | MDA-N > 100 µM | MOLT-4 > 100 µM | Malme-3M > 100 µM | NCI-H226 > 100 µM | NCI-H23 > 100 µM | NCI-H460 > 100 µM | NCI-H522 > 100 µM | NCI/ADR-RES > 100 µM | OVCAR-3 > 100 µM | OVCAR-4 > 100 µM | OVCAR-5 > 100 µM | PC-3 > 100 µM | RPMI-8226 > 100 µM | RXF 393 > 100 µM | SF-268 > 100 µM | SK-MEL-28 > 100 µM | SK-MEL-5 > 100 µM | SK-OV-3 > 100 µM | SN12C > 100 µM | SNB-19 > 100 µM | SNB-75 > 100 µM | SR > 100 µM | SW-620 > 100 µM | T47D > 100 µM | TK-10 > 100 µM | U-251 > 100 µM | UACC-62 > 100 µM | UO-31 > 100 µM

O=C(O)CCC(C(=O)O)N1C(=O)c2ccccc2C1=O (stereo unspecified)
> 100 µM: HCT-15
inactive: 786-0 > 100 µM | A498 > 100 µM | A549 > 100 µM | ACHN > 100 µM | BT-549 > 100 µM | CAKI-1 > 100 µM | CCRF-CEM > 100 µM | COLO 205 > 100 µM | DU-145 > 100 µM | EKVX > 100 µM | HCC 2998 > 100 µM | HCT-116 > 100 µM | HL-60 > 100 µM | HOP-62 > 100 µM | HOP-92 > 100 µM | HT-29 > 100 µM | Hs-578T > 100 µM | IGROV-1 > 100 µM | K562 > 100 µM | KM12 > 100 µM | LOX IMVI > 100 µM | M14 > 100 µM | MCF7 > 100 µM | MDA-MB-231 > 100 µM | MDA-MB-435 > 100 µM | MDA-N > 100 µM | Malme-3M > 100 µM | NCI-H226 > 100 µM | NCI-H23 > 100 µM | NCI-H460 > 100 µM | NCI-H522 > 100 µM | NCI/ADR-RES > 100 µM | OVCAR-3 > 100 µM | OVCAR-4 > 100 µM | OVCAR-5 > 100 µM | OVCAR-8 > 100 µM | PC-3 > 100 µM | RPMI-8226 > 100 µM | RXF 393 > 100 µM | SF-268 > 100 µM | SF-295 > 100 µM | SK-MEL-28 > 100 µM | SK-MEL-2 > 100 µM | SK-MEL-5 > 100 µM | SK-OV-3 > 100 µM | SN12C > 100 µM | SNB-19 > 100 µM | SNB-75 > 100 µM | SR > 100 µM | SW-620 > 100 µM | T47D > 100 µM | TK-10 > 100 µM | U-251 > 100 µM | UACC-257 > 100 µM | UACC-62 > 100 µM | UO-31 > 100 µM
